Results from patent US20230203058A1, “MACROCYCLIC DIAMINE DERIVATIVES AS ENT INHIBITORS FOR THE TREATMENT OF CANCERS, AND COMBINATION THEREOF WITH ADENOSINE RECEPTOR ANTAGONISTS” (ITEOS BELGIUM SA, priority 2020, published 2023).
Where two headings read alike, the source gives them in different places.

Test system: stimulated primary human T cells
Assay: T cell proliferation assay (rescue of proliferation in presence of ATP, CFSE dilution)
Format: cell-based
Settings: 100 uM ATP

Work on COc1cc(C(=O)O[C@H]2CCCOc3cc(cc(OC)c3OC)C(=O)OCCCN3CCCN(CC2)CC3)cc(OC)c1OC [Compound 2, (12S)-74,75-dimethoxy-6-oxo-5,8-dioxa-1(1,4)-diazepana-7(1,3)-benzenacyclotetradecaphane-12-yl 3,4,5-trimethoxybenzoate] yielded an IC50 (Condition A: X-VIVO15, read-out: T Cell proliferation (Condition A) IC50) of 20 to 500 nM and an IC50 (Condition B: X-VIVO15, 2% HSA and 0,1% AAG, read-out: (2) T Cell proliferation (Condition B) IC50) of 20 to 500 nM.
